Where “and” joins values, the source holds several entries; their conditions need not be identical. Identical values can stand only once.
These molecules were tested against EGFR (murine) (UniProt P00533). Conditions: nih3t3/c7.
EGFR (murine), sequence (P00533 whole entry, looked up): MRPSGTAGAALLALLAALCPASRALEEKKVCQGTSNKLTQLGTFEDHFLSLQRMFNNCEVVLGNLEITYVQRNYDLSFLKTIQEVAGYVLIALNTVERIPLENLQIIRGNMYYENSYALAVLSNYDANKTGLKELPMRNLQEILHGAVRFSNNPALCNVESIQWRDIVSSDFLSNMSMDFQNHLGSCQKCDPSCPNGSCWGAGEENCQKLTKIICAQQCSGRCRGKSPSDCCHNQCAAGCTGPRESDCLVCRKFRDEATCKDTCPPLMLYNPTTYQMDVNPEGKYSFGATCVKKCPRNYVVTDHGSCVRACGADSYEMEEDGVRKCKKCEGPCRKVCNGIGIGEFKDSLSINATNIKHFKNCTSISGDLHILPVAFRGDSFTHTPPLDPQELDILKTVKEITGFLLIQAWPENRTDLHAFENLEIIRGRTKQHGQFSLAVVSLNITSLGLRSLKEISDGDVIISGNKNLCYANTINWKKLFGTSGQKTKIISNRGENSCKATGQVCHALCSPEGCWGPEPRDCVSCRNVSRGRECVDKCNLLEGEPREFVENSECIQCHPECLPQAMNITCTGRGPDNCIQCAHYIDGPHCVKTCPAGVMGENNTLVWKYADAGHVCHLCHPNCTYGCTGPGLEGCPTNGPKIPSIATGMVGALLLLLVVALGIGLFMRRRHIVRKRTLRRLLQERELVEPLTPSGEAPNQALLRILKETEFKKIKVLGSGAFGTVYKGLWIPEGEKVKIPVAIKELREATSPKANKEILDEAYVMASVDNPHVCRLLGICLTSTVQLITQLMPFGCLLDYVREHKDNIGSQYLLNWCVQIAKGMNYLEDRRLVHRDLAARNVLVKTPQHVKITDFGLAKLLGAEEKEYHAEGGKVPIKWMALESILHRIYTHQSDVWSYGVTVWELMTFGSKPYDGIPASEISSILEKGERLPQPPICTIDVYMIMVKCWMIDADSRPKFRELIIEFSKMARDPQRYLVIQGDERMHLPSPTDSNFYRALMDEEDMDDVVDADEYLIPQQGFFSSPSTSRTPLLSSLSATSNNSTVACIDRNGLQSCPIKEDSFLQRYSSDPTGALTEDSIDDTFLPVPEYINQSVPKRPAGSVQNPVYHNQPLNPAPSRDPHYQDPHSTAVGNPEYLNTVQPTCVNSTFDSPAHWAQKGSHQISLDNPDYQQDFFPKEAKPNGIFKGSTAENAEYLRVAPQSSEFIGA

**Q.** Which IC50 does the source give for Cc1ccc2ncnc(Nc3cccc(Cl)c3)c2c1 here?
**A.** 0.06 µM

**Q.** Which IC50 does the source give for CC(C)(C)c1cc(/C=C(\C#N)S(=O)(=O)/C(C#N)=C/c2cc(C(C)(C)C)c(O)c(C(C)(C)C)c2)cc(C(C)(C)C)c1O here?
**A.** > 100 µM

**Q.** For CC(=O)C1=C(c2ccccc2)[NH+]([O-])c2ccccc2[NH+]1[O-] (stereo not drawn), which IC50 is on record?
**A.** > 100 µM

**Q.** Which IC50 does the source give for Clc1cccc(Nc2ncnc3ccccc23)c1 here?
**A.** 0.16 µM and 0.2 µM

**Q.** For COC(=O)c1ccc(NCc2cc(O)ccc2O)cc1, which IC50 is on record?
**A.** 43 µM

**Q.** Which IC50 does the source give for Cc1ccc2ncnc(Nc3cccc(C(F)(F)F)c3)c2c1 here?
**A.** 0.86 µM

**Q.** CC(=O)ON=C(Cl)C1=C[NH+]([O-])c2cc(Cl)ccc2[NH+]1[O-] (stereo not drawn) was tested. Which IC50 did it give?
**A.** > 50 µM

**Q.** With N#CC(C#N)=CNNc1cccc(Cl)c1 as the molecule, how does the IC50 read?
**A.** > 50 µM

**Q.** N#C/C(=C\c1cc(O)c(O)c(Br)c1)C(=O)NCCCNC(=O)/C(C#N)=C/c1cc(O)c(O)c(Br)c1 was tested. Which IC50 did it give?
**A.** 31.5 µM

**Q.** For CC(C)(C)c1cc(/C=C(\C#N)c2c(C#N)c(N)nn2-c2ccccc2)cc(C(C)(C)C)c1O, which IC50 is on record?
**A.** 25 µM

**Q.** For Cc1cc2nc(CSCCCSCc3nc4cc(C)c(C)cc4nc3-c3ccccc3)c(-c3ccccc3)nc2cc1C, which IC50 is on record?
**A.** 12.5 µM

Each molecule was assayed against EGFR (human) (UniProt P00533). Conditions: a431.
EGFR (human), sequence (P00533 whole entry, looked up): as above

**Q.** For Cc1ccc2ncnc(Nc3cccc(Cl)c3)c2c1, which IC50 is on record?
**A.** 10 µM and 20 µM

**Q.** How did the IC50 turn out when Clc1cccc(Nc2ncnc3ccccc23)c1 was run?
**A.** 20 µM
